Data set [1] concerns RAW 264.7 cells. Description: Cell viability (SRB) of RAW 264.7 cells in the NO assay. It is filed as cell-based. The settings on record: 50 µM.
For data set [2], the system named is NFκB. Description: TNF-α-induced NFκB luciferase reporter assay in stably-transfected human embryonic kidney cells 293. The format is cell-based. The settings on record: for IC50: human embryonic kidney cells 293 NFκB reporter, TNF-α 2 ng/mL, 6 h, read-out: IC50, inhibition of TNF-α-induced NFκB activity. As to the method:
Activation of NFκB may promote cell proliferation or prevent cell death through apoptosis. Inhibition of NFκB signaling has potential application for the treatment or prevention of cancer; some inhibitors are known. […] […].
We employed human embryonic kidney cells 293 Panomic (Fremont, CA, USA) for monitoring changes occurring along the NFκB pathway. Stable constructed cells were seeded into sterile 96-well plate at 20 × 10^3 cells per well. Cells maintained in Dulbecco’s modified Eagle’s medium (DMEM) Invitrogen Co. (Carlsbad, CA, USA), supplemented with 10% FBS, 100 units/mL penicillin, 100 µg/mL streptomycin, 2 mM L-glutamine. After 48 h incubation, the medium was replaced and cells were treated with various concentration of test substances dissolved in PBS. TNF-α (Human, Recombinant, E. coli, Calbiochem, Gibbstown, NJ, USA) was used as an activator at a concentration of 2 ng/mL (0.14 nM). The plate was incubated for 6 h. Spent medium was discarded and the cells were washed once with PBS. Cells were lysed using 50 µL (for 96-well plate) Reporter Lysis Buffer from Promega, by incubating for 5 min on a shaker, and stored at −80 °C. The luciferase assay was performed using the Luc assay system from Promega (Madison, WI, USA). The gene product, luciferase enzyme, reacts with luciferase substrate, emitting light which was detected using a luminometer (LUMIstar Galaxy BMG). Data for NFκB constructs are expressed as IC50 values (i.e., concentration required to inhibit TNF-activated NFκB activity by 50%).
(A reporter such as luciferase makes a cellular process visible.)

The test system of data set [3] is NO production in LPS-induced RAW 264.7 cells. Description: LPS-induced NO production in RAW 264.7 cells (Griess reagent). As to conditions: for NO % inhibition (50 µM): LPS-induced RAW 264.7 cells; for inhibition at 50 µM / IC50: Mus musculus; for inhibition at 50 µM: RAW264.7, read-out: NO % inhibition (50 µM), LPS-induced RAW 264.7 cells, 50 µM; for IC50: RAW264.7, read-out: NO IC50. On the technique in general: Nitrite, measured by Griess reagent, commonly stands in for NO production.
Description: The amount of nitrite was measured using the Griess reagent to assess the NO production [47, 48]. […] The cells were treated with various concentrations of compounds dissolved in phenol-red free DMEM for 30 min followed by 1 μg/mL of LPS treatment for 24 h. […] The standard curve was created by using known concentrations of sodium nitrite.

In data set [4] the target is T1, ovine COX-1 (Ovis aries, UniProt P05979).
T1 sequence (P05979 25-600): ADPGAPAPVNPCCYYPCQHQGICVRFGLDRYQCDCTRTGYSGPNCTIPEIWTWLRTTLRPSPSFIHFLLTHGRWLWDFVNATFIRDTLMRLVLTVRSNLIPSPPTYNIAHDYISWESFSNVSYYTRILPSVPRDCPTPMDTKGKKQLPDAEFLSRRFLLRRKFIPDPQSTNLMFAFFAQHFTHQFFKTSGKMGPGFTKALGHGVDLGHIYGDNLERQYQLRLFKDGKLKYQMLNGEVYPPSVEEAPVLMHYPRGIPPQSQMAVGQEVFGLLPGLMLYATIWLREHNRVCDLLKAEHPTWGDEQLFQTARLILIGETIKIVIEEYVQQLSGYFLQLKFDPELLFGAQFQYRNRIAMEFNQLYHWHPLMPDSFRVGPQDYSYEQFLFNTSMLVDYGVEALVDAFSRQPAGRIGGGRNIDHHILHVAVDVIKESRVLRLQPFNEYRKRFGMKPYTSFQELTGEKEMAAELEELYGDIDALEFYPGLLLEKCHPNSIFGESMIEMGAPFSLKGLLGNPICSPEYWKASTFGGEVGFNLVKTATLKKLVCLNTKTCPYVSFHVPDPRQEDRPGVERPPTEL
The experiment in a line: COX-1 inhibition assay (LC-MS/MS of PGE2). The format is biochemical. The method, then: (§1) Each COX reaction was initiated by adding 20 µL of arachidonic acid in Tris-HCl (pH 8.0) buffer to give a final concentration of 5 µM. The reaction was terminated after 2 min by adding 20 µL of 2.0 M HCl. The surrogate standard PGE2-d4 was added to correct for errors or degradation during sample handling and for variation in injection volume or instrument response during LC-MS/MS. After 30 min, PGE2 and its surrogate standard were extracted from each incubation mixture using 800 µL of hexane/ethyl acetate (50:50, v/v). The organic phase was removed, evaporated to dryness, and reconstituted in 100 µL methanol/water (50:50, v/v) for analysis using LC-MS/MS with an Applied Biosystems AP4000 triple quadrupole mass spectrometer as described previously. The concentration of PGE2 in each sample was measured using LC-MS/MS, and the percent of COX inhibition by each test solution was determined by comparing the amount of PGE2 produced in the experiment with that produced in the negative control incubation. For IC50 value determination, 12 different concentrations of each inhibitor were assayed three times. The IC50 value of each inhibitor toward COX-1 or COX-2 was determined by plotting and analyzing the inhibition curve data using Graph Pad Prism 5 software. The selectivity of each inhibitor was calculated as the ratio of the IC50 values (COX-1/COX-2).

In data set [5] the target is T2, human COX-2 (Homo sapiens, UniProt P35354).
T2 sequence (P35354 18-604): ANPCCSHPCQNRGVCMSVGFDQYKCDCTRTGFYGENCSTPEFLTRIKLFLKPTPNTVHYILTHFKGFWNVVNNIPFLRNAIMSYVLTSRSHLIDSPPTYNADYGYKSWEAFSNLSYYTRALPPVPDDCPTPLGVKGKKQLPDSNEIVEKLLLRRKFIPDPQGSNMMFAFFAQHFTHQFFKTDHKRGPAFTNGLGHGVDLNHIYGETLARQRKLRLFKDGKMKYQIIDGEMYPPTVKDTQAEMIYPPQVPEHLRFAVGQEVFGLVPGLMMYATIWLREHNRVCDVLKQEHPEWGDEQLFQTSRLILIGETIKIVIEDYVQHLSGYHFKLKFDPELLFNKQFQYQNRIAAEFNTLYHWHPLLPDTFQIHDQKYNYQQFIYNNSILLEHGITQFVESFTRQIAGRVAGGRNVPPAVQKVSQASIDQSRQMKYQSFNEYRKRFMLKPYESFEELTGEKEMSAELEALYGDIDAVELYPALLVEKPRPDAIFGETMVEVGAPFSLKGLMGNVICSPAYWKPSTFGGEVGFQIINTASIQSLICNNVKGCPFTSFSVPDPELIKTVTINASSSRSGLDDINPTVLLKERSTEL
The experiment in a line: COX-2 inhibition assay (LC-MS/MS of PGE2). The format is biochemical. The settings on record: for IC50: human COX-2; for Selectivity COX-1/COX-2: ratio of the IC50 values (COX-1/COX-2). As to the method: as §1

[6] abbreviates: phenazine 1 compared with lavanducyanin.

By IC50 is commonly meant the concentration at which inhibition is half-maximal. Broadly, the inhibition is the percentage by which the read-out fell short of the control.

`CC(C)=CCn1c2ccc(Br)c(=O)c-2nc2ccccc21` [Phenazine 2]: the “NO % cell survival” value in data set [1] is 56.0 ± 5.1%. Also, the IC50 in data set [2] was 24.2 µM. In addition, in data set [3], the “NO % inhibition (50 µM)” value is listed as 98.1 ± 0.5%, the inhibition at 50 µM was > 90% and the half-maximal inhibitory concentration (IC50) came out at 15.1 ± 2.7 µM. In data set [4], the half-maximal inhibitory concentration (IC50) turned out to be 5.6 ± 0.61 µM. In addition, in data set [5], half-maximal inhibition (IC50) required 7.2 ± 0.13 µM and the “Selectivity COX-1/COX-2” value was 0.78.
For the molecule `CC1=C(Cn2c3cccc(=O)c-3nc3ccccc32)CCC(C)(C)C1` [Lavanducyanin 3, lavanducyanin], in data set [1], the “NO % cell survival” value was determined as 58.3 ± 4.6%. For the same molecule, the concentration for half-maximal inhibition (IC50) in data set [2] is 16.3 µM. In data set [3], the “NO % inhibition (50 µM)” value is given as 97 ± 0.7%, the inhibition at 50 µM was > 90% and the concentration for half-maximal inhibition (IC50) is 8 ± 0.39 µM. For the same molecule, the 50% inhibitory concentration (IC50) in data set [4] was found to be 30 ± 1.08 µM. In data set [5], 34 ± 1.1 µM corresponded to half-maximal inhibition (IC50) and the “Selectivity COX-1/COX-2” value is given as 0.88.
As for `CC1=C(Cn2c3ccc(Br)c(=O)c-3nc3ccccc32)CCC(C)(C)C1` [Phenazine 1], the “NO % cell survival” value in data set [1] stood at 68.9 ± 3.8%. Moreover, the IC50 in data set [2] was 4.1 µM; in data set [3], > 48.6 µM; in data set [4] it was 11 ± 0.53 µM; in data set [5], 4 ± 0.41 µM. Further, the “enhancement of NFκB inhibitory activity by bromination at position-2” value in data set [2] (setting [6]) was “approximately 4 fold”. Moreover, the “NO % inhibition (50 µM)” value in data set [3] came out at 40.1 ± 5%. In addition, the inhibition at 50 µM in data set [3] is 40%. The “enhancement of inhibition of the catalytic activity of COX-2” value in data set [5] (setting [6]) is ~10 fold. Moreover, the figures for the “Selectivity COX-1/COX-2” value in data set [5] and in data set [5] (listed as phenazine 1) were 2.75 and “approximately 3”, respectively.

The values are drawn from PMC3297008, “Novel Marine Phenazines as Potential Cancer Chemopreventive and Anti-Inflammatory Agents” (Marine Drugs, 2012).
